Measured values taken from patent publication US20060160790A1, “Thioureas as factor Xa inhibitors” (Portola Pharmaceuticals, Inc., priority 2004, published 2006).
pIC50: −log10 of the molar value.

target: T1, human plasma protein factor Xa (Homo sapiens, UniProt P00742); test: Factor Xa IC50 determination (cleavage of paranitroanilide substrate S-2765); format: biochemical; conditions: fXa 1 nM, S2765 100 μM, Tris buffered saline pH 7.4, room temperature
T1 construct: measure proteolytic activity of the enzyme (factor Xa) by following cleavage of paranitroanilide substrate; purchased Haematologic Technologies (Essex Junction, Vt.); host or cells: human plasma
Protocol: An in vitro assay for detecting and measuring inhibition activity against Factor Xa is as follows:
The substrate S-2765 (Z-D-Arg-Gly-Arg-pNA.HCl) was obtained from Diapharma (West Chester, Ohio).
The human plasma protein factor Xa was purchased from Haematologic Technologies (Essex Junction, Vt.).
All assays, which are performed in 96-well microtiter plates, measure proteolytic activity of the enzyme (factor Xa) by following cleavage of paranitroanilide substrate. The assay buffer used for proteolytic assays was Tris buffered saline (20 mM Tris, 150 mM NaCl, 5 mM CaCl2, 0.1% Bovine serum albumin (BSA), 5% Dimethly Sulfoxide (DMSO) pH 7.4). In a 96-well microtiter plate, inhibitor was serially diluted to give a range of concentrations from 0.01 nM to 10 μM (final). Duplicate sets of wells were assayed and control wells without inhibitor were included. Enzyme was added to each well, (fXa concentration=1 nM), the plate was shaken for 5 seconds and then incubated for 5 minutes at room temperature. S2765 was added (100 μM final) and the plate was shaken for 5 seconds (final liquid volume in each well was 200 μl). The degree of substrate hydrolysis was measured at 405 nm on a Thermomax plate reader (Molecular Devices, Sunnyvale, Calif.) for 2 minutes. The initial velocities (mOD/min), for each range of inhibitor concentrations, were fitted to a four parameter equation using Softmax data analysis software. The parameter C, derived from the resulting curve-fit, corresponded to the concentration for half maximal inhibition (IC50).

T1 sequence (P00742 235-488 limits assumed): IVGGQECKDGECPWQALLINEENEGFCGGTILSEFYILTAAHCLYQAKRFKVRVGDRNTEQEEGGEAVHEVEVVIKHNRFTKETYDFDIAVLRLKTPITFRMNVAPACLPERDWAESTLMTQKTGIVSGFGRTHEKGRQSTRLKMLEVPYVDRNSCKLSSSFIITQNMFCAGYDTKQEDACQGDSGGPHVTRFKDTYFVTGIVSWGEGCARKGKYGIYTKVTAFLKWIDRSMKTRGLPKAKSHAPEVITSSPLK
T1 sequence (P00742 41-179 partner limits assumed): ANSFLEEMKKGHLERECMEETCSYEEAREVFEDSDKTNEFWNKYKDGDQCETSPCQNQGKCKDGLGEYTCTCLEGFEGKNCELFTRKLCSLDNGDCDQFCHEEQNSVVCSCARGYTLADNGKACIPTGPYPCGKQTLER

pIC50 | SMILES
≥ 7.00 | COCCN(C)C(=N)c1ccc(NC(=O)C(NC(=S)Nc2ccc(Br)cc2)c2ccccc2)cc1 (stereo not drawn) [Example 7, N-{4-[(N-methyl-N-2-methoxyethyl)aminoimino]phenyl}-2-phenyl-2-(4-bromophenylaminothiocarbonylamino)-acetamide]
≤ 6.30 | N=C(c1ccc(NC(=O)[C@@H](NC(=S)Nc2ccc(Br)cc2C(F)(F)F)c2ccccc2)cc1)N1CCCC1 [Example 22]
≥ 7.00 | N=C(c1ccc(NC(=O)[C@@H](NC(=S)Nc2ccc(Cl)cc2)c2ccccc2)cc1)N1CCCC1 [Example 16]
≥ 7.00 | O=C(Nc1ccc(-n2ccccc2=O)cc1)[C@H](NC(=S)Nc1ccc(Cl)cc1)c1ccccc1 [Example 35, (2R) N-[4-(2-pyridon-1-yl)phenyl]-2-phenyl-2-(4-chlorophenylaminothiocarbonylamino)-acetamide]
≥ 7.00 | N=C(c1ccc(NC(=O)C(NC(=S)Nc2ccc(F)cc2)c2ccccc2)cc1)N1CCCC1 (stereo not drawn) [Example 10]
≤ 6.30 | CCOC(=O)C1CCN(C(=N)c2ccc(NC(=O)C(NC(=S)Nc3ccc(Br)cc3)c3ccccc3)cc2)CC1 (stereo not drawn) [Example 8]
6.30 to 7.00 | NS(=O)(=O)c1ccccc1-c1ccc(NC(=O)C(NC(=S)Nc2ccc(Cl)cc2)c2ccccc2)cc1 (stereo in doubt) [Example 32, (S) N-[4-(2-aminosulfonylphenyl)phenyl]-2-phenyl-2-(4-chlorophenylaminothiocarbonylamino)-acetamide]
≤ 6.30 | N=C(c1ccc(NC(=O)[C@@H](NC(=S)Nc2ccc(Br)cc2F)c2ccccc2)cc1)N1CCCC1 [Example 17]
≤ 6.30 | N=C(c1ccc(NC(=O)[C@@H](NC(=S)Nc2ccc(Br)c(Cl)c2)c2ccccc2)cc1)N1CCCC1 [Example 21, (S) N-[4-(pyrrolidinylimino)phenyl]-2-phenyl-2-(3-chloro-4-bromophenylaminothiocarbonylamino)-acetamide]
≥ 7.00 | N=C(c1ccc(NC(=O)[C@@H](NC(=S)Nc2ccc(Br)cc2)c2ccccc2)cc1)N1CCCC1 [Example 13, (S) N-[4-(pyrrolidinylimino)phenyl]-2-phenyl-2-(4-bromophenylaminothiocarbonylamino)-acetamide]
≥ 7.00 | NS(=O)(=O)c1ccccc1-c1ccc(NC(=O)[C@@H](NC(=S)Nc2ccc(Br)cn2)c2ccccc2)cc1 [Example 30, (S) N-[4-(2-aminosulfonylphenyl)phenyl]-2-phenyl-2-(5-bromopyridin-2-ylaminothiocarbonylamino)-acetamide]
≥ 7.00 | CN1CCC(N2CCN(C(=O)[C@@H](NC(=S)Nc3ccc(Cl)cc3)c3ccccc3)CC2)CC1 [Example 26]

Continued, compound first:

SMILES | pIC50
NS(=O)(=O)c1ccccc1-c1ccc(NC(=O)C(NC(=S)Nc2ccc(Cl)cc2)c2ccccc2)cc1 (stereo in doubt) [Example 33, (R) N-[4-(2-aminosulfonylphenyl)phenyl]-2-phenyl-2-(4-chlorophenylaminothiocarbonylamino)-acetamide] | ≥ 7.00
N=C(c1ccc(NC(=O)C(NC(=S)Nc2ccc(Br)cc2)c2ccccc2)cc1)N1CCCC1 (stereo not drawn) [Example 5] | ≥ 7.00
Cc1cc2cc(NC(=S)NCC(=O)Nc3ccc(C(=N)N(C)C)cc3)ccc2o1 [Example 1, N-[4-(dimethylaminoimino)phenyl]-2-[(2-methylbenzo[b]furan-5-yl)aminothiocarbonylamino]-acetamide] | ≤ 6.30
Cc1cc(Br)ccc1NC(=S)N[C@H](C(=O)Nc1ccc(C(=N)N2CCCC2)cc1)c1ccccc1 [Example 19] | ≤ 6.30
Cc1cc2cc(NC(=S)N[C@@H](CC(C)C)C(=O)Nc3ccc(C(=N)N(C)C)cc3)ccc2o1 [Example 3] | ≤ 6.30
Cc1cc2cc(NC(=S)NC(C(=O)Nc3ccc(-c4ccccc4S(N)(=O)=O)cc3)c3ccccc3)ccc2o1 (stereo not drawn) [Example 28, N-[4-(2-aminosulfonylphenyl)phenyl]-2-phenyl-2-[(2-methylbenzo[b]furan-5-yl)aminothiocarbonylamino]-acetamide] | ≥ 7.00
CN1CCN=C1c1ccc(NC(=O)C(NC(=S)Nc2ccc(Br)cc2)c2ccccc2)cc1 (stereo not drawn) [Example 9, N-[4-(1-methyl-4,5-dihydro-1H-imidazol-2-yl)phenyl]-2-phenyl-2-(4-bromophenylaminothiocarbonylamino)-acetamide] | ≥ 7.00
N=C(c1ccc(NC(=O)[C@@H](NC(=S)Nc2ccc(Br)cc2)c2ccccc2)cc1)N1CCCCC1 [Example 14, (S) N-[4-(piperidinylimino)phenyl]-2-phenyl-2-(4-bromophenylaminothiocarbonylamino)-acetamide] | 6.30 to 7.00
Cc1cc2cc(NC(=S)NCC(=O)Nc3ccc(C4=NCCN4C)cc3)ccc2o1 [Example 2, N-[4-(1-methyl-4,5-dihydro-1H-imidazol-2-yl)phenyl]-2-[(2-methylbenzo[b)furan-5-yl)aminothiocarbonylamino]-acetamide] | ≤ 6.30
N=C(c1ccc(NC(=O)[C@@H](NC(=S)Nc2ccc(Br)cc2OC(F)(F)F)c2ccccc2)cc1)N1CCCC1 [Example 18] | ≤ 6.30
O=C(Nc1ccc(-n2ccccc2=O)cc1)[C@@H](NC(=S)Nc1ccc(Cl)cc1)c1ccccc1 [Example 34, (2S) N-[4-(2-pyridon-1-yl)phenyl]-2-phenyl-2-(4-chlorophenylaminothiocarbonylamino)-acetamide] | ≥ 7.00
CN1CCC(N2CCN(C(=O)[C@H](NC(=S)Nc3ccc(Cl)cc3)c3ccccc3)CC2)CC1 [Example 27] | ≥ 7.00
C#Cc1ccc(NC(=S)NC(C(=O)Nc2ccc(C(=N)N3CCCC3)cc2)c2ccccc2)cc1 (stereo not drawn) [Example 11] | ≥ 7.00
CN1CCC(C2CCN(C(=O)[C@H](NC(=S)Nc3ccc(Cl)cc3)c3ccccc3)CC2)CC1 [Example 37, (2R) 4-(1-methylpiperidin-4-yl)piperidin-1-yl-2-phenyl-2-(4-chlorophenylaminothiocarbonylamino)-acetamide] | ≤ 6.30
N=C(c1ccc(NC(=O)[C@@H](NC(=S)Nc2ccc(Br)cc2)c2ccccc2)cc1)N1CCCCCC1 [Example 15] | ≥ 7.00
CN(C)C(=N)c1ccc(NC(=O)C(NC(=S)Nc2ccc(Br)cc2)c2ccccc2)cc1 (stereo not drawn) [Example 4, N-[4-(dimethylaminoimino)phenyl]-2-phenyl-2-(4-bromophenylaminothiocarbonylamino)-acetamide] | ≥ 7.00
N=C(c1ccc(NC(=O)[C@@H](NC(=S)Nc2c(Br)cc(Br)cc2Br)c2ccccc2)cc1)N1CCCC1 [Example 23] | ≤ 6.30
CC(C)C(NC(=S)Nc1ccc(Cl)cc1)C(=O)Nc1ccc(C2=NCCN2C)cc1 (stereo not drawn) [Example 24, N-[4-(1-methyl-4,5-dihydro-1H-imidazol-2-yl)phenyl]-2-isopropyl-2-(4-chlorophenylaminothiocarbonylamino]-acetamide] | ≥ 7.00
O=C(Nc1ccc(N2CCOCC2=O)cc1)C(NC(=S)Nc1ccc(Cl)cc1)c1ccccc1 (stereo not drawn) [Example 25, N-[4-(3-oxo-morpholin-4-yl)phenyl]-2-phenyl-2-(4-chlorophenylaminothiocarbonylamino)-acetamide] | ≥ 7.00
NS(=O)(=O)c1ccccc1-c1ccc(NC(=O)C(NC(=S)Nc2ccc(Br)cc2)c2ccccc2)cc1 (stereo not drawn) [Example 29, N-[4-(2-aminosulfonylphenyl)phenyl]-2-phenyl-2-[(4-bromophenyl)aminothiocarbonylamino]-acetamide] | ≥ 7.00
O=C(Nc1ccc(-n2ccccc2=O)cc1F)[C@H](NC(=S)Nc1ccc(Cl)cc1)c1ccccc1 [Example 36, (2R) N-[4-(2-pyridon-1-yl)-2-fluorophenyl]-2-phenyl-2-(4-chlorophenylaminothiocarbonylamino)-acetamide] | ≥ 7.00
N=C(c1ccc(NC(=O)[C@@H](NC(=S)Nc2ccc(Cl)cc2Cl)c2ccccc2)cc1)N1CCCC1 [Example 20] | ≤ 6.30
NS(=O)(=O)c1ccccc1-c1ccc(NC(=O)[C@H](NC(=S)Nc2ccc(Br)cn2)c2ccccc2)cc1 [Example 31, (R) N-[4-(2-aminosulfonylphenyl)phenyl]-2-phenyl-2-(5-bromopyridin-2-ylaminothiocarbonylamino)-acetamide] | 6.30 to 7.00
N=C(c1ccc(NC(=O)C(NC(=S)Nc2ccc(Br)cc2)c2ccccc2)cc1)N1CCC1 (stereo not drawn) [Example 6] | ≥ 7.00
